Patent US20060014709A1, “Drug or cosmetic” (priority 2002, published 2006)
Read-outs that look alike come from different tables or passages of the source.

Tested on: human peripheral blood T lymphocytes / cytotoxic macrophages
Format: cell-based
Excerpt: Another embodiment of the method for screening a compound which can prevent, mitigate or treat renal glomerular lesions, lesions of pancreatic islets of Langerhans or epidermal lesions include a method for screening a compound in the presence of which a number of produced cytotoxic macrophages is decreased, comprising the steps of (i) inducing cytotoxic macrophages by cultivating human peripheral blood mononuclear cells in RPMI 1640 medium in the presence of lipopolysaccharide and human AB type serum; (ii) at the same time, inducing unfractionated T lymphocytes by cultivating human peripheral blood unfractionated T lymphocytes with or without lipopolysaccharide in the presence of the test compound; (iii) bringing the cytotoxic macrophages obtained in (i) into contact with monolayered autologous erythrocytes in the presence of the unfractionated T lymphocytes obtained in (ii), and measuring a number of produced cytotoxic macrophages; and (iv) comparing with the number of generated cytotoxic macrophages in the absence of the test compound (for convenience, referred to as screening method C).
(a) Induction of cytotoxic macrophages is described below. To 2×10^6PBMC floated on RPMI1640 medium containing human normal serum of type AB, 2 mM of L-glutamine and 5 μg/mL of gentamicin, LPS is added so as to make a concentration 80 μg/mL, and the PBMC is cultivated for 6 days at 37° C. under 5% CO2-95% air to induce cytotoxic macrophages. The PBMC is obtained similarly as in the screening method A. The induced cytotoxic macrophages are recovered from the medium. In the recovering, a known method may be used, including a method of collecting adhered materials with a rubber-policeman (rubber spatula). Then, the recovered cytotoxic macrophages may be washed. In washing, a Hanks solution with about 5 μg/mL of gentamicin is preferably used.
(b) Induction of unfractionated T lymphocytes is described below. First, human peripheral blood unfractionated T lymphocytes is separated as described below. As described in the screening method A, to a PBMC fraction separated by a specific gravity centrifugal method was added sheep erythrocytes treated with neuraminidase and reacted for 20 minutes at 37° C. This solution is gently added to a tube in which Percolls of discontinuous specific gravities are layered, and centrifuged at 400×g for 20 minutes at room temperature. In the layered Percolls of discontinuous specific gravities, fractions of rosetted T lymphocytes and monocytes floating on a layer of not less than d=1.091 are collected respectively. To the fraction of rosetted T lymphocytes is added ammonium chloride to hemolyze the sheep erythrocyte and a fraction of T lymphocytes is obtained. The fraction of monocytes obtained at the same time is washed. […]

SMILES: O=C1CC[C@@](Sc2ccc(Cl)cc2)(C(=O)OCc2ccccc2)O1 (stereo in doubt) [compound (III-1), 2-(4-chlorophenyl)thio-5-oxo-2-tetrahydrofurancarboxylic acid benzyl ester]
- induction of regulatory CD2^−CD4^+ T lymphocytes (in words): induces regulatory CD2^−CD4^+ T lymphocytes
- Inhibition rate (%) of SPFC positive cells versus T lymphocytes treated with solvent (T lymphocytes treated with 0.1 μg/ml of compound): 69.2%
- Inhibition rate (%) of SPFC positive cells versus T lymphocytes treated with solvent (T lymphocytes treated with 1 μg/ml of compound): 53.8%
- Inhibition rate (%) of SPFC positive cells versus T lymphocytes treated with solvent (T lymphocytes treated with 10 μg/ml of compound): 92.3%
